Molecules are shown by their SMILES.

The target of assay [1] is T1, Arachidonate 5-lipoxygenase-activating protein (Homo sapiens, UniProt P20292).
T1 sequence (P20292 whole entry): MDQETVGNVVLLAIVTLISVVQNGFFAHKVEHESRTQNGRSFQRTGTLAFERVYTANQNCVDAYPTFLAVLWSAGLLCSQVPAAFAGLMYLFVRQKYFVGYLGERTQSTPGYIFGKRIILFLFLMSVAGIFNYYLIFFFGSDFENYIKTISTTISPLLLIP
Nature of the assay: Inhibition of FLAP in human neutrophils assessed as decrease in LT biosynthesis preincubated for 15 mins followed by AA substrate addition by HPLC analysis.

Assay [2] can be described thus: Inhibition of soybean 15-LOX using linoleic acid as substrate preincubated for 15 mins followed by substrate addition and measured up to 6 mins by spectrophotometric analysis. Further details: species or system Glycine max.
A short description of assay [3]: Inhibition of LOX (unknown origin). Also on record: species or system Homo sapiens.
Assay [4] relates to Mus musculus. Kind of assay: Anti-inflammatory activity in mouse assessed as inhibition of xylene induced ear edema at 30 mg/kg relative to control. The format is functional. Further details: scale not given: the % may be the effect or the level left.
In assay [5] the target is T2, Polyunsaturated fatty acid lipoxygenase ALOX12 (Homo sapiens, UniProt P18054).
T2 sequence (P18054 whole entry): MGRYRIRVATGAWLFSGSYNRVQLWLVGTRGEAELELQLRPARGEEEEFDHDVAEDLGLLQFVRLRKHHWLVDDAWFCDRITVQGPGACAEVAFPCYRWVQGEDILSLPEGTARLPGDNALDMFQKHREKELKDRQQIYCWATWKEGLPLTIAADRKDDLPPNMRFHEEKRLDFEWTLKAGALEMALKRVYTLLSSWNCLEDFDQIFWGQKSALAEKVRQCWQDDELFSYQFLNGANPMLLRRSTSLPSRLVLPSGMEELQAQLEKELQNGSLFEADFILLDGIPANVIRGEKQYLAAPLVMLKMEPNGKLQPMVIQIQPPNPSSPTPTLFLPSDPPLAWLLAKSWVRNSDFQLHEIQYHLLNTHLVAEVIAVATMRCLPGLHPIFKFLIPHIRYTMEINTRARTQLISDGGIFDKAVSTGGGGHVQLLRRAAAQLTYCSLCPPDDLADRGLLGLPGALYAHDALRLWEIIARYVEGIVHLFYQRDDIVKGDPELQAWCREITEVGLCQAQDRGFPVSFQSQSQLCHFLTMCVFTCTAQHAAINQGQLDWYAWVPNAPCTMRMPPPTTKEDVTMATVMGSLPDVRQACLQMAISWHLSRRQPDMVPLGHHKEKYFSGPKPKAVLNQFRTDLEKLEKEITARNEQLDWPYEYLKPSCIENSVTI
Nature of the assay: Inhibition of human N-terminal His-tagged 12-LOX expressed in Escherichia coli(Rosetta) by rhodamine 123 dye-based fluorescence assay.

The target in assay [6] is T3, Polyunsaturated fatty acid 5-lipoxygenase (Homo sapiens, UniProt P09917).
T3 sequence (P09917 whole entry): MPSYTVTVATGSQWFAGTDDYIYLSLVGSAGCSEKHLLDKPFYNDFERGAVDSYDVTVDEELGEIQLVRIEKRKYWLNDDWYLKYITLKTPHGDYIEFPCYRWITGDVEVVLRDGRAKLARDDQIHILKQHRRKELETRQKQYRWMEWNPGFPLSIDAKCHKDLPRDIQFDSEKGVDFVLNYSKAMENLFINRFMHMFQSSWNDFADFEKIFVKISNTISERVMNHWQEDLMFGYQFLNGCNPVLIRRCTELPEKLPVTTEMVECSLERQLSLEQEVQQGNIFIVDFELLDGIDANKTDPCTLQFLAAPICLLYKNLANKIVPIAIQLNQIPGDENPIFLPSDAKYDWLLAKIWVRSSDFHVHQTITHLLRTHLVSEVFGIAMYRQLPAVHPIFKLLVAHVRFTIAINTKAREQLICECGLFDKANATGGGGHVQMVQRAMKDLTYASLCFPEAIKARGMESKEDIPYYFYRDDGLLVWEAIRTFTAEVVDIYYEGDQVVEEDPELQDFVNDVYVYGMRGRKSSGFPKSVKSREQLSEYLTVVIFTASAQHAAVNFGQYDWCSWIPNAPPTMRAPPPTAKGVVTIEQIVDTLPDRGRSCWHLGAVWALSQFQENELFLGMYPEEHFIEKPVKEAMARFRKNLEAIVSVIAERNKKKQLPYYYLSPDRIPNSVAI
Nature of the assay: Inhibition of human N-terminal His-tagged 5-LOX expressed in Escherichia coli(Rosetta) by rhodamine 123 dye-based fluorescence assay.

The target of assay [7] is T4, Polyunsaturated fatty acid lipoxygenase ALOX15 (Homo sapiens, UniProt P16050).
T4 sequence (P16050 whole entry): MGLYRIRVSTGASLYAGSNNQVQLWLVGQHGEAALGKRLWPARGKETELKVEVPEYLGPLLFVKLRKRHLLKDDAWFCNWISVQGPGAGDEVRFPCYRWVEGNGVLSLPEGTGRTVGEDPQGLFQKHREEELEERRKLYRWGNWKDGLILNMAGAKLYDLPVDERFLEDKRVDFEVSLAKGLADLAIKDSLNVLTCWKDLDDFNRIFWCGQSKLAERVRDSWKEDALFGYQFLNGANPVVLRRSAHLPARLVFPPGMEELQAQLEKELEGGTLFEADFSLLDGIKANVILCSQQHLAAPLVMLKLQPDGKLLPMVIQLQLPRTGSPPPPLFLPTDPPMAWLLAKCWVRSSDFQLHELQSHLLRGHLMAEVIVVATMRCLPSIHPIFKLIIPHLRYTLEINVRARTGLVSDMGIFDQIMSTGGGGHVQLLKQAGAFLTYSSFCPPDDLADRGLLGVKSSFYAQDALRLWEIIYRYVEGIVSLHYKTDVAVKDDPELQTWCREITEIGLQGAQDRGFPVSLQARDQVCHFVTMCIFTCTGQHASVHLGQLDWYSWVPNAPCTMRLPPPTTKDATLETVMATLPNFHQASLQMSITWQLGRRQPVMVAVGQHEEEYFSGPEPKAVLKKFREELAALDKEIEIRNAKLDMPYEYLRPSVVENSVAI
Kind of assay: Inhibition of human N-terminal His-tagged 15-LOX expressed in Escherichia coli(Rosetta) by rhodamine 123 dye-based fluorescence assay.

Assay [8] is described as follows: Inhibition of soybean 5LOX using linoleic acid as substrate preincubated for 5 mins followed by substrate addition and measured after 20 mins by spectrophotometric analysis. Also on record: species or system Glycine max.
For assay [9], the target named is T1, Arachidonate 5-lipoxygenase-activating protein. Nature of the assay: Inhibition of FLAP in human leukocytes assessed as decrease in ionophore A23187-induced LT biosynthesis after 10 mins. In kind it is cell-based.
In assay [10] the target is T5, Polyunsaturated fatty acid lipoxygenase ALOX15 (Homo sapiens) (UniProt P16050).
T5 sequence (whole entry): T4 sequence (P16050 whole entry)
Kind of assay: Inhibition of 15-LOX (unknown origin) at 12.7 uM relative to control.

Assay [11] deals with T6, Seed linoleate 13S-lipoxygenase-1 (Glycine max, UniProt P08170).
T6 sequence (P08170 whole entry): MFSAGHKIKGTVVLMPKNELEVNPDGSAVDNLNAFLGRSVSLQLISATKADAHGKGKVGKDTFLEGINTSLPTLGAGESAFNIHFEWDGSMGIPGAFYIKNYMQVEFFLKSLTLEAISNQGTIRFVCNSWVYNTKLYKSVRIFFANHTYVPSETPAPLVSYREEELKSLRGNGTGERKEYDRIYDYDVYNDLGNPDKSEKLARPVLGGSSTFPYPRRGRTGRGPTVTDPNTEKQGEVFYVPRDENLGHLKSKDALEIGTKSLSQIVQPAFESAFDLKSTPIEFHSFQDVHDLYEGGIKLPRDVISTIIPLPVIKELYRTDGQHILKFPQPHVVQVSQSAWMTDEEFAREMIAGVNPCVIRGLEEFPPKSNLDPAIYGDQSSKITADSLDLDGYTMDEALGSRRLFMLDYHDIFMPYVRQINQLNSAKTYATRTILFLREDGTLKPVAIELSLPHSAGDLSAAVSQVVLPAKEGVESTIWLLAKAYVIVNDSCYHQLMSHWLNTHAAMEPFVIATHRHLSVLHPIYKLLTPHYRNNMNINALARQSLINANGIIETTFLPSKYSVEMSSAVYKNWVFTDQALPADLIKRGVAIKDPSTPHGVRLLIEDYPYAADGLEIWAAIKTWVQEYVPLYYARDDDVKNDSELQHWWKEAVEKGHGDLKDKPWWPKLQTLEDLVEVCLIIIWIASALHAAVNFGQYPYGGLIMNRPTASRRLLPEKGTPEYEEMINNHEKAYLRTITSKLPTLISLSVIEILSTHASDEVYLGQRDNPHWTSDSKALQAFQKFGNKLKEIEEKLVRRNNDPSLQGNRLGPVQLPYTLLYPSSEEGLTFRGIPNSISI
Nature of the assay: Inhibition of soybean LOX-1 using linoleic acid as substrate preincubated for 120 secs with substrate followed by enzyme addition and measured every 30 secs for 7.5 mins by spectrophotometric analysis.

The target of assay [12] is T7, Polyunsaturated fatty acid 5-lipoxygenase (Rattus norvegicus, UniProt P12527).
T7 sequence (P12527 whole entry): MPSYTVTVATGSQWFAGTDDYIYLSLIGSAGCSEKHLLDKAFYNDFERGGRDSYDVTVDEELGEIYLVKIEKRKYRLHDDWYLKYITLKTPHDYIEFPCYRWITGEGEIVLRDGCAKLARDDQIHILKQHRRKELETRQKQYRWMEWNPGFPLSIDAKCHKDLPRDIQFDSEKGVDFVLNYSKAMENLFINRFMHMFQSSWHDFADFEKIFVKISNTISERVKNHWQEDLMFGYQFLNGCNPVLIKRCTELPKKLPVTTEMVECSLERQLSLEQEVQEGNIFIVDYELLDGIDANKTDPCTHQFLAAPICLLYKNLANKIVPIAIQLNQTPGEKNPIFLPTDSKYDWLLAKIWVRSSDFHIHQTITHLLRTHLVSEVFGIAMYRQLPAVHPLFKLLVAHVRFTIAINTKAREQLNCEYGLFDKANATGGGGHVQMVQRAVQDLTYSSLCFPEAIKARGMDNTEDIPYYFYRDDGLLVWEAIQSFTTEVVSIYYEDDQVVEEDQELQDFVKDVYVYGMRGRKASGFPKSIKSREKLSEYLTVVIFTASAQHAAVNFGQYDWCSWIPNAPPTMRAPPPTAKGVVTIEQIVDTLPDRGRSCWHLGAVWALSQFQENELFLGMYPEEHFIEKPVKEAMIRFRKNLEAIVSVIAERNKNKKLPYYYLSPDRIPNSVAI
Nature of the assay: Inhibition of rat 5-LOX expressed in Sf21 insect cells preincubated for 4 mins followed by AA substrate addition and measured after 4 mins by FOX assay.

Assay [13] addresses T3, Polyunsaturated fatty acid 5-lipoxygenase. Kind of assay: Inhibition of 5-LOX (unknown origin).

On to `Cc1noc(-c2ccc(OCc3ccc4ccccc4n3)cc2)c1-c1ccc(Cl)cc1`, for which the IC50 (as a rule, the concentration that gives 50% inhibition) in assay [1] came out at 4400 nM.
For the compound `CCCCC(=O)c1c(O)cc(O)c(C/C=C(\C)CCC=C(C)C)c1O`, in assay [2], the half-inhibitory concentration (IC50) is 10300 nM.
Take `O=C(O)CCCc1c[nH]c2ccccc12`: inhibition in assay [3] was half-maximal at 17800 nM (IC50).
Turning to `Cc1ccc(-c2cc(C(F)(F)F)nn2-c2ccc(S(N)(=O)=O)cc2)cc1` [CELECOXIB], in assay [4], the Activity stood at 46.7%.
As for `O=C(Cc1c[nH]c2ccccc12)NN=C(c1ccccc1)c1ccccc1`, inhibition in assay [3] was half-maximal at 53600 nM (IC50).
`CC(C)/C=C/c1c(O)cc(-c2cc3ccc(O)cc3o2)cc1O`: the half-maximal inhibitory concentration (IC50) in assay [5] is 1300 nM; in [6], 1670 nM.
For `CC(C)=CCc1c(O)cc(-c2cc3ccc(O)cc3o2)cc1O` [MORACIN C], the IC50 in assay [5] is 210 nM; in assay [7], 1210 nM; in [6] it was 2350 nM.
For the compound `O=C(O)Cc1c[nH]c2ccccc12` [INDOLE-3-ACETIC ACID], the IC50 in assay [3] came to 43000 nM.
In turn, `COc1ccc2nc(NCC(O)COc3ccc4c(C)cc(=O)oc4c3)sc2c1` (stereo not given) gave an IC50 in assay [8] of 2100 nM.
Turning to `CC(C)c1ccc2c(c1)c(SC(C)(C)C)c(CC(C)(C)C(=O)O)n2Cc1ccc(Cl)cc1`, the IC50 in [9] amounted to 102 nM.
Take `C/C(=C\COc1cc2oc(=O)ccc2cc1O)C/C=C/C(C)(C)O`: the inhibition – broadly, the relative decrease from the control value, in per cent – in [10] was 34.8%.
As to `CS(=O)(=O)c1ccc(-c2nc(SCCN(O)C(N)=O)nn2-c2ccc(Br)cc2)cc1`, the IC50 in assay [3] worked out at 850 nM. In addition, the Activity in [4] stood at 54.1%.
`CC[C@H](C)/C=C(C)/C=C/C1=C(Br)C2=CC(=O)C(C)(O)C(=O)C2=CO1` (stereo not given in full) returned an IC50 in assay [11] of 3200 nM.
In turn, `Cc1cc(=O)oc2cc(OCC(O)CNc3nc4ccc(Cl)cc4s3)ccc12` (stereo not given) had an IC50 in assay [8] of 2800 nM.
With `Cc1cc(Nc2nc(-c3ccc(Cl)cc3)cs2)cc(C)c1O`, the midpoint of inhibition in assay [12], the IC50, lay at 127 nM.
In the case of `CS(=O)(=O)c1ccc(-n2nc(-c3ccc(-c4ccccc4)cc3)c3ccccc3c2=O)cc1`, the IC50 in assay [13] was determined as 6200 nM.

These data come from ChEMBL document CHEMBL4257455, “Recent development of lipoxygenase inhibitors as anti-inflammatory agents” (Medchemcomm, 2018).
